Experimental data as given in paper PMC6345492, “Thioguanine-based DENV-2 NS2B/NS3 protease inhibitors: Virtual screening, synthesis, biological evaluation and molecular modelling” (PLoS ONE, 2019).
Read-outs that look alike come from different tables or passages of the source.

Experiments:
DENV-2 NS2B/NS3pro [1] = target: T1, DENV-2 NS2B/NS3pro (Dengue virus type 2, UniProt P14340); experiment: DENV-2 NS2B/NS3pro protease inhibition assay (fluorogenic Boc-GRR-MCA substrate); assay type: biochemical; conditions: for IC50: 3 μM protease, 25 μM substrate
T1 construct: pQE30.CF40.gly(T).NS3pro expression plasmid; 6x-His (N); glycine linker (gly(T)) joining CF40 to NS3pro (C); made in house; host or cells: Escherichia coli strain XL1-Blue
T1 sequence (P14340 1398-1437): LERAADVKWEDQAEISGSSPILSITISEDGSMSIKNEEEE
T1 sequence (P14340 1476-1653): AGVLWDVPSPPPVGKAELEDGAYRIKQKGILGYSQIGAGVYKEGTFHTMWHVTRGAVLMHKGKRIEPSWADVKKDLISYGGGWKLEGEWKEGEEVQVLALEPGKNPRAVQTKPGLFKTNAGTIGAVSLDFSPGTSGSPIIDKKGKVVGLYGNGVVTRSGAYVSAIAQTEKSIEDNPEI
Description: The DENV-2 NS2B/NS3pro expression was carried out according to the established method by Yusof et al., (2000) with minor modifications according to published articles. The plasmid encoding the NS2B/NS3 protease sequence from DENV-2 was transformed into Escherichia coli strain XL1-Blue transformed with pQE30.CF40.gly(T).NS3pro expression plasmid were grown in LB medium containing 10 μg/ml ampicillin at 37°C until the OD600 reached 0.6. First, the cells were incubated at 37°C, 200 rpm until OD600 reached ~0.6. One ml of isopropyl-β-D-thiogalactopyranoside (0.5 mM in LB medium) was added to the bacterial cells for 2 hours to induce protein expression. Expression of the recombinant protein was induced by the addition of […] IPTG and the culture was incubated for 2 hours.
The cells were harvested by centrifugation at 8000 rpm (Sorvall RC-5B Refrigerated Superspeed centrifuge) for 15 minutes at […]. The cell pellets were thawed (1 g) and resuspended in lysis buffer (5 mL) followed by mixing them using vortex until milky. For purification, cells were lysed by sonication conducting (6 times 15-second pulse, duty cycle 10%, output control no 3) using Ultrasonic Cell Disruptor, Branson Sonifier 450, Germany. The lysate was incubated on ice for 1 hour and then centrifuged at 8000 rpm for 1 hour at 4°C. The soluble 6x-His-NS2B/NS3protease in its native form was filtered ([…]), batch-bound to 2 x 2 ml Ni^2+-NTA (nickel-nitrilotriacetic acid) resin (pre-equilibrated with column buffer) and incubated overnight at 4°C. The resin was cleaned up from the unbound fraction by centrifugation and the resin with bound protein was collected and loaded into columns (Bio-Rad; 1 x 3 cm). The gradient technique columns were washed extensively with 3 x 15 ml of wash buffer and further eluted with 10 ml of elution buffer for each column while being monitored using Bio-Rad Bradford protein assay. The purified protein was then analysed with 12% SDS-PAGE, pooled and stored at -80°C for further use in the dengue protease activity and inhibition studies. The dengue protease activity assay was developed as previously described with a slight modification. Briefly, the assay system comprised of 200 mM Tris-HCl (pH 8.5) buffer, DENV-2 NS2B/NS3pro and Boc-GRR-MCA as the substrate. Protease optimum assay was executed to ascertain maximum protease activity at constant concentration of the substrate (25 μM). The protease concentrations were varied within 0–10 μM. The 7-Amino-4-methylcoumarin (AMC) produced was measured as fluorescence intensity at λexcitation of 340 nm and λemission of 440 nm by using ELISA modulus microplate reader.
The compounds were also checked for its requirement to pass the pan assay interference compounds (PAINS) (http://cbligand.org/PAINS/) before tested for their inhibition activities against DENV-2 NS2B/NS3pro at a range of concentrations (0 to 300 μg/mL). […] The concentration of the protease being used was 3 μM initially incubated with the compound for 10 minutes at 37°C with 200 rpm of rotation. Subsequently, 25 μM of the substrate was added and the incubation was further prolonged for 60 minutes. The fluorescence intensity at 340/ 440 nm was measured as the AMC byproduct was released upon the peptide substrate cleavage by the protease. The experiments were triplicated and Panduratin A was used as the positive control.

DENV-2 NS2B/NS3pro [2] = target: T1, DENV-2 NS2B/NS3pro; set-up: method as in PMID 16621533; conditions: competitive inhibition; cited from earlier work
[3] = TG derivatives, Table 2, read-out: IC50
[4] = six newly designed compounds, Table 3, read-out: IC50

Structure (SMILES)	IC50 (DENV-2 NS2B/NS3pro [1]; [3]) [µM]	IC50 (DENV-2 NS2B/NS3pro [1]; [4]) [µM]	other results
COc1cccc(S(=O)(=O)Nc2nc(S)c3nc[nH]c3n2)c1 [Compound 4]	68		
COc1ccc(S(=O)(=O)Nc2nc(S)c3nc[nH]c3n2)cc1 [Compound 5]	55		
CCC(=O)Nc1nc(SC(=O)CC)c2nc[nH]c2n1 [Compound 16]		97	
CC(C)C(=O)Nc1nc(SC(=O)C(C)C)c2nc[nH]c2n1 [Compound 17]		80	
CCCCC(=O)Nc1nc(SC(=O)CCCC)c2nc[nH]c2n1 [Compound 18]		0.38	
CCCCC(=O)Nc1nc(SCc2ccccc2)c2nc[nH]c2n1 [Compound 19]		54	
CC(C)Cn1cnc2c(SCc3cccc4ccccc34)nc(N)nc21 [Compound 20]		258	
CCCCC(=O)Nc1nc(SCc2ccccc2)c2ncn(Cc3ccccc3)c2n1 [Compound 21]		16	
COc1cc(O)c(C(=O)[C@@H]2[C@H](CC=C(C)C)C(C)=CC[C@H]2c2ccccc2)c(O)c1 [Panduratin A, panduratin A, reference compound]			Ki (DENV-2 NS2B/NS3pro [2]): 25 µM; IC50 (DENV-2 NS2B/NS3pro [1]; NCI diversity set hits, read-out: Experimental IC50): 56 µM
Nc1nc2nc[nH]c2c(=S)[nH]1 [TG, thioguanine]	753		inhibition at 200 µg/mL (DENV-2 NS2B/NS3pro [1]): 56%
